These results are taken from ChEMBL document CHEMBL1649268, “Comparative in vitro activity profile of oritavancin against recent gram-positive clinical isolates” (2009).

The assay has as its system Staphylococcus aureus. The experiment in a line: Antimicrobial activity against oxacillin-resistant Staphylococcus aureus clinical isolates by broth microdilution method. It counts as functional. (Dilution methods test growth across graded concentrations, often in twofold steps.)

SMILES strings stand for the structures. Converted amounts (≈) assume the structure as drawn.

The term MIC90 denotes an inhibitory concentration at the 90% level, which refers to growth in some studies and to a panel of isolates in others. Low values mean higher susceptibility, high ones lower susceptibility. `CN[C@H](CC(C)C)C(=O)N[C@H]1C(=O)N[C@@H](CC(N)=O)C(=O)N[C@H]2C(=O)N[C@H]3C(=O)N[C@H](C(=O)N[C@H](C(=O)O)c4cc(O)cc(O)c4-c4cc3ccc4O)[C@H](O)c3ccc(c(Cl)c3)Oc3cc2cc(c3O[C@@H]2O[C@H](CO)[C@@H](O)[C@H](O)[C@H]2O[C@H]2C[C@](C)(N)[C@H](O)[C@H](C)O2)Oc2ccc(cc2Cl)[C@H]1O` [VANCOMYCIN] registered an MIC90 of 1 µg/mL (≈ 0.69 µM).
